# Results as given in paper PMC12064818, “A general assay platform to study protein pharmacology using ligand-dependent structural dynamics” (Nature Communications, 2025).
# “And” between values parts separate entries of the source, which are not always exact repeats. Equal entries are not always repeated.
# Columns and labels:
# Assay type in all cases: biochemical
# [1] = biological target: C. elegans iPGM-C-HiBiT (Caenorhabditis elegans, UniProt G5EFZ1); test: iPGM coupled-enzyme assay, C. elegans iPGM-C-HiBiT; design: cDNA, containing Phe2-Ile539 and the 6xHis tag; His6 (C); made in house; host or cells: E. coli; details: C. elegans iPGM-C-HiBiT Std 5 nM; ligand […] Std
# Procedure: (§1) The enzyme activity of C. elegans or B. malayi iPGM-C-HiBiT was measured using the functional coupled-enzyme luminescence end-point output assay for iPGM as previously described[16],[41],[68]. Briefly, the indicated concentration of 4 μL of iPGM-C-HiBiT was dispensed into 1536-well white, high solid base, medium bind plates in a pH 8.0 iPGM assay buffer (30 mM Tris-HCl, 5 mM magnesium sulfate, 20 mM potassium chloride and 0.08% BSA) with the BioRaptr 2. Compounds and controls were added to each plate with a pintool as described in Supplementary Data 8. Enzymes were incubated with peptide for > 20 min at ambient temperature, protected from light. […] Enzyme was at 5 nM final concentration for the standard assay with an estimated KM 3-phosphoglycerate (3PG) substrate concentration of 400 μM. Plates were incubated at ambient temperature for 10 min, protected from light, then measured by a ViewLux plate reader. […] See Supplementary Table 6 for additional details.
# (§2) Supplementary Table 6. Protocol for Co- factor independent phosphoglycerate mutase (iPGM) coupled-enzyme assay
# (§3) Supplementary Table 6: Protocol for Co-factor independent phosphoglycerate m utase (iPGM) coupled- enzym e assay […]
# (§4) No enzym e control (colum n 1) and enzym e solutions (5 nM Bm iPGM-C-HiBiT or Ce iPGM-1 Reagent 4 µLC-HiBiT dialyzed against Zn/Mn final assay concentration) in PGM enzym e buffer; white/solid bottom , m edium bind, high base plates (Greiner), dispensed with BioRaptr 2 […]
# (§5) in 8-pt 1:6 titration series in duplicate); com pounds transferred to respective colum ns with […]
# (§6) Test com pounds: m acrocyclic peptides at 5 m M stock concentration in 16-pt, 1:3 titration […]
# (§7) transferred to respective colum ns with Pintool
# (§8) 3 Incubation 20 m inIncubate enzym e + com pounds at am bient tem p for 20 m in, protected from light 4 Reagent 2 µLSubstrate solution; 0.4 m M final concentration 3PG in coupled-enzym e substrate buffer; dispensed with BioRaptr 2
# (§9) 5 Incubation 5 m inAm bient tem perature, protected from light
# (§10) 6 Reagent 4 µLKinase-Glo Plus reagent (Prom ega) prepared according to m anufacturer’s protocol;
# (§11) 7 Incubation 10 m inRoom tem perature, protected from light
# (§12) 8 Detector ViewLuxRead plate lum inescence (Exposure = 1 sec; Gain = Medium; Speed = Slow; Binning = 2X) […]
# (§13) in 20% glycerol); Bm iPGM-C-HiBiT enzym e 10 µM stock solution in 20% glycerol.
# (§14) Coupled-enzym e substrate solution: 30 m M Tris-HCl, pH 8.0; 5 m M MgSO4; 20 m M KCl; 9 m M ADP (3 m M final); 0.1 4 units/µl enolase (Millipore Sigm a, Cat# E6126); 0.15 units/µl pyruvate kinase (from rabbit m uscle, Millipore Sigm a, Cat #
# [2] = biological target: B. malayi iPGM-C-HiBiT (Brugia malayi, UniProt Q4VWF8); test: iPGM coupled-enzyme assay, B. malayi iPGM-C-HiBiT; design: cDNA, containing Ala2-Glu515 and the 6xHis tag; His6 (C); made in house; host or cells: E. coli; details: B. malayi iPGM-C-HiBiT Std 5 nM; ligand […] Std
# Procedure: as §1, §2, §3, §4, §5, §6, §7, §8, §9, §10, §11, §12, §13, §14
# [3] = biological target: FLuc-N-HiBiT (firefly luciferase) (Photinus pyralis, UniProt P08659, form not given/L550V); test: Firefly luciferase (FLuc) enzymatic luminescence assay, FLuc-N-HiBiT; details: for Functional Enzymatic Assay: 10 nM FLuc-N-HiBiT, replicates; for Functional Enzymatic Assay / 10 nM FLuc-N-HiBiT Enz, Mean: Log [PTC124]
# Procedure: The enzyme activity of FLuc-N-HiBiT, FLuc-C-HiBiT, and FLuc-C-NLuc was measured similar to P. pyralis firefly luciferase (FLuc) as previously described. […] Compounds and controls were added to each plate as described in Supplementary Data 8 with a Hornet pintool system (Wako Automation). Compounds were incubated with respective enzymes for 30–60 min at room temperature protected from light and covered by solid metal lid to prevent evaporation. […] Luciferin was incubated with FLuc enzyme for 5 min before FLuc activity was then measured on a ViewLux CCD imager (PerkinElmer), with exposure times up to ten seconds with medium to high gain settings. Data were normalized to average no enzyme control as 100% enzyme inhibition and average DMSO neutral control. See Supplementary Table 4 for additional details.
# Supplementary Table 4. Protocol for Firefly luciferase (FLuc) and NanoLuc (NLuc) enzymatic
# Supplementary Table 4: Protocol for Firefly luciferase (FLuc) and NanoLuc (NLuc) enzym atic lum inescence assay
# Firefly luciferase (FLuc) enzym atic lum inescence assay
# Sequence Param eter Value Description
# No enzym e control (colum n 1) and enzym e solution (1- 10 nM FLuc enzym e) in FLuc assay
# 1 Reagent 4 µLbuffer; white/solid bottom , m edium bind, high base plates (Greiner), dispensed with BioRaptr
# com pounds transferred to respective colum ns with Pintool
# 2b Test Com pounds 23 nLconcentration range) in colum ns 5- 48; com pounds transferred to respective wells with
# 3 Incubation 30 m in Incubate enzym e + com pounds at am bient tem p for 30 m in, protected from light
# 4 Reagent 3 µLAdd 3 µL of D-luciferin substrate solution to each well (final concentration 10 µM); dispensed
# 5 Detector ViewLux Read plate lum inescence (Exposure = 1- 10 sec; Gain = Medium -high; Speed = Slow;
# Dispensing solution was diluted in 1X PBS, pH 7.4. […]
# FLuc-N-HiBiT (firefly luciferase), sequence (P08659 2-550 L550V, form open): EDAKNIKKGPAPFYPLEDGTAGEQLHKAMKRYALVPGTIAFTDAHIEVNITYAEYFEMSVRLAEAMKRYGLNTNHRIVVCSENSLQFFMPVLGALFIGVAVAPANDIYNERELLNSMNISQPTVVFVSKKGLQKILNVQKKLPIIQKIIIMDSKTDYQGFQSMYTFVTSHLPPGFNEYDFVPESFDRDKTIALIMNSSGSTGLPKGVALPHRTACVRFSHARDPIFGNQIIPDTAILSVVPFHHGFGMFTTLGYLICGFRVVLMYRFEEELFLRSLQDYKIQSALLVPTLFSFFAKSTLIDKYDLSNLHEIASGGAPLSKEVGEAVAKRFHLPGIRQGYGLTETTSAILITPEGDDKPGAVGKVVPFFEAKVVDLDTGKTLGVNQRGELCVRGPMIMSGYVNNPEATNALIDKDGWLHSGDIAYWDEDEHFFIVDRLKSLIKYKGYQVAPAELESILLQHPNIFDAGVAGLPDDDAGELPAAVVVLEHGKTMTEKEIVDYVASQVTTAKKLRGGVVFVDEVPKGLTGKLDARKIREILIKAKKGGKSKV
# C. elegans iPGM-C-HiBiT, sequence (G5EFZ1 2-539): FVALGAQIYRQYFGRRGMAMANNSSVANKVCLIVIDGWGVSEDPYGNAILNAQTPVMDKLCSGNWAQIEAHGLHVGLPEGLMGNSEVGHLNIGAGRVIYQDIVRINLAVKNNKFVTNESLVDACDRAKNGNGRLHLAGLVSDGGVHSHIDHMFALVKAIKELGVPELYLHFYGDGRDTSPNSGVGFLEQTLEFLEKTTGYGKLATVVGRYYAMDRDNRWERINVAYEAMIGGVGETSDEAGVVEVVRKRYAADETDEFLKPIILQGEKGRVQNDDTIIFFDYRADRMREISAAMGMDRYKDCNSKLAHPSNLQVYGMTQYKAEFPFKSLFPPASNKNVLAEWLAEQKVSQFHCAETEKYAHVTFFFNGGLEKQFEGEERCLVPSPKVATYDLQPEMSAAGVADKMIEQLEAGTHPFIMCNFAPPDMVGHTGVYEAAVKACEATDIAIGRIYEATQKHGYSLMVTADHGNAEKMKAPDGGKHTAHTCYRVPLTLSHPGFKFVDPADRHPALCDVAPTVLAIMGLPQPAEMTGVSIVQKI
# B. malayi iPGM-C-HiBiT, sequence (Q4VWF8 2-515): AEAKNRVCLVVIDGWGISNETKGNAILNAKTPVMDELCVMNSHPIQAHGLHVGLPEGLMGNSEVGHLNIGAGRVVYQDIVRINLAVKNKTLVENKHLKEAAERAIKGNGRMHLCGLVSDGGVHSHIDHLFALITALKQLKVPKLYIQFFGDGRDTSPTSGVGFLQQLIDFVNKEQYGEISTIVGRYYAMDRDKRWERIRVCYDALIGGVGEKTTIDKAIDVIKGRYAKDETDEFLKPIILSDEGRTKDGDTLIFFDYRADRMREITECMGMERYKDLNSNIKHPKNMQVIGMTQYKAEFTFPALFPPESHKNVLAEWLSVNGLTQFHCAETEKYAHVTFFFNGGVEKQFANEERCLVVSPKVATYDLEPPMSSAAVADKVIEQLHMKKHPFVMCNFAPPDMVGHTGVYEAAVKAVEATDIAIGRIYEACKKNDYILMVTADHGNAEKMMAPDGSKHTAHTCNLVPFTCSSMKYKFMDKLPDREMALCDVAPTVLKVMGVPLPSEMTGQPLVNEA
compound,measurement,setting,value
CC(C)C[C@H](NC(=O)[C@H](Cc1ccc(O)cc1)NC(=O)[C@@H]1CSCC(=O)N[C@H](Cc2ccc(O)cc2)C(=O)N[C@@H](CC(=O)O)C(=O)N[C@@H](Cc2ccc(O)cc2)C(=O)N2CCC[C@H]2C(=O)NCC(=O)N[C@@H](CC(=O)O)C(=O)N[C@@H](Cc2ccc(O)cc2)C(=O)N1)C(=O)N[C@@H](Cc1ccc(O)cc1)C(=O)NCC(=O)N[C@H](C(=O)N[C@@H](CS)C(=O)NCC(N)=O)[C@@H](C)O [Ce-2],Standard assay statistics Ave RLU,[1],3361.1 RLU
same,Standard assay statistics S:B,[1],8.4
same,Standard assay statistics S:N,[1],-16.5
same,Standard assay statistics Z’,[1],0.816
same,Standard assay statistics Ave RLU,[2],4115.8 RLU
same,Standard assay statistics S:B,[2],1.7
same,Standard assay statistics S:N,[2],-6.9
same,Standard assay statistics Z’,[2],0.521
"O=C(O)c1cccc(-c2noc(-c3ccccc3F)n2)c1 [PTC124, reference compound]",Functional Enzymatic Assay,[3]; M -4.48,7.2 RLU and 7.9 RLU (2×) and 7.3 RLU and 6.7 RLU and 7.1 RLU
same,Functional Enzymatic Assay,[3]; M -4.96,8.6 RLU and 8.1 RLU and 7.7 RLU and 8.3 RLU and 7.1 RLU and 7.2 RLU
same,Functional Enzymatic Assay,[3]; M -5.44,8.3 RLU (2×) and 8.6 RLU and 8.4 RLU and 7.5 RLU (2×)
same,Functional Enzymatic Assay,[3]; M -5.91,8.7 RLU (2×) and 9.2 RLU and 8.9 RLU and 8.3 RLU and 8.5 RLU
same,Functional Enzymatic Assay,[3]; M -6.39,10.6 RLU and 10.5 RLU and 10.2 RLU (2×) and 10.1 RLU and 9.7 RLU
same,Functional Enzymatic Assay,[3]; M -6.87,14.3 RLU (2×) and 14.5 RLU and 14.7 RLU and 15.0 RLU and 14.8 RLU
same,Functional Enzymatic Assay,[3]; M -7.35,29.6 RLU and 29.7 RLU and 30.2 RLU and 33.4 RLU and 41.4 RLU and 37.0 RLU
same,Functional Enzymatic Assay,[3]; M -7.82,144.5 RLU and 149.3 RLU and 178.2 RLU and 166.0 RLU and 190.3 RLU and 174.6 RLU
same,Functional Enzymatic Assay,[3]; M -8.30,301.7 RLU and 309.5 RLU and 327.2 RLU and 328.1 RLU and 308.7 RLU and 316.4 RLU
same,Functional Enzymatic Assay,[3]; M -8.78,370.7 RLU and 364.6 RLU and 370.3 RLU and 363.9 RLU and 364.3 RLU and 365.0 RLU
same,Functional Enzymatic Assay,[3]; M -9.25,391.9 RLU and 389.1 RLU and 396.6 RLU and 382.9 RLU and 381.5 RLU and 379.2 RLU
same,Functional Enzymatic Assay,[3]; M -9.73,393.8 RLU and 390.8 RLU and 393.2 RLU and 390.0 RLU and 387.4 RLU and 383.0 RLU
same,Functional Enzymatic Assay,[3]; M -10.21,400.1 RLU and 398.5 RLU and 399.0 RLU and 394.9 RLU and 391.0 RLU and 381.4 RLU
same,Functional Enzymatic Assay,[3]; M -10.69,399.5 RLU and 393.3 RLU and 400.5 RLU and 393.7 RLU and 383.2 RLU and 377.0 RLU
same,Functional Enzymatic Assay,[3]; M -11.16,392.3 RLU and 386.5 RLU and 400.5 RLU and 393.0 RLU and 385.0 RLU and 368.5 RLU
same,Functional Enzymatic Assay,[3]; M -11.64,389.5 RLU and 376.4 RLU and 395.8 RLU and 380.1 RLU and 381.7 RLU and 371.3 RLU
same,"pIC50, FLuc-N-HiBiT (10 nM)",[3]; 10 μM ATP,7.68 ± 0.02
same,"10 nM FLuc-N-HiBiT Enz, Mean",[3]; M (Enz) -4.24,7.3 RLU
same,"10 nM FLuc-N-HiBiT Enz, Mean",[3]; M (Enz) -4.72,7.8 RLU
same,"10 nM FLuc-N-HiBiT Enz, Mean",[3]; M (Enz) -5.19,8.1 RLU
same,"10 nM FLuc-N-HiBiT Enz, Mean",[3]; M (Enz) -5.67,8.7 RLU
same,"10 nM FLuc-N-HiBiT Enz, Mean",[3]; M (Enz) -6.15,10.2 RLU
same,"10 nM FLuc-N-HiBiT Enz, Mean",[3]; M (Enz) -6.63,14.6 RLU
same,"10 nM FLuc-N-HiBiT Enz, Mean",[3]; M (Enz) -7.10,33.5 RLU
same,"10 nM FLuc-N-HiBiT Enz, Mean",[3]; M (Enz) -7.58,167.1 RLU
same,"10 nM FLuc-N-HiBiT Enz, Mean",[3]; M (Enz) -8.06,315.3 RLU
same,"10 nM FLuc-N-HiBiT Enz, Mean",[3]; M (Enz) -8.53,366.5 RLU
same,"10 nM FLuc-N-HiBiT Enz, Mean",[3]; M (Enz) -9.01,386.9 RLU
same,"10 nM FLuc-N-HiBiT Enz, Mean",[3]; M (Enz) -9.49,389.7 RLU
same,"10 nM FLuc-N-HiBiT Enz, Mean",[3]; M (Enz) -9.97,394.1 RLU
same,"10 nM FLuc-N-HiBiT Enz, Mean",[3]; M (Enz) -10.44,391.2 RLU
same,"10 nM FLuc-N-HiBiT Enz, Mean",[3]; M (Enz) -10.92,387.6 RLU
same,"10 nM FLuc-N-HiBiT Enz, Mean",[3]; M (Enz) -11.40,382.5 RLU
